Reference: PubChem BioAssay (NCI)
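Method: 48-hour compound exposure of cells in 96-well plates, five concentrations, linear interpolation of endpoints. GI50 is the concentration that inhibits growth by half. TGI marks complete inhibition of growth.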

Legend:
Assay in all cases: inhibition of tumour cell growth, NCI panel, 48 h
COLO 205 colon = tested on: COLO 205 colon
IGROV1 ovarian = tested on: IGROV1 ovarian
OVCAR-4 ovarian = tested on: OVCAR-4 ovarian
OVCAR-5 ovarian = tested on: OVCAR-5 ovarian
OVCAR-8 ovarian = tested on: OVCAR-8 ovarian
SF-268 CNS = tested on: SF-268 CNS
SF-539 CNS = tested on: SF-539 CNS
SNB-75 CNS = tested on: SNB-75 CNS
U251 CNS = tested on: U251 CNS
UACC-62 melanoma = tested on: UACC-62 melanoma

| SMILES | TGI (COLO 205 colon) | TGI (IGROV1 ovarian) | TGI (OVCAR-4 ovarian) | TGI (OVCAR-5 ovarian) | TGI (OVCAR-8 ovarian) | TGI (SF-268 CNS) | TGI (SF-539 CNS) | TGI (SNB-75 CNS) | TGI (U251 CNS) | TGI (UACC-62 melanoma) | GI50 (COLO 205 colon) | GI50 (IGROV1 ovarian) | GI50 (OVCAR-4 ovarian) | GI50 (OVCAR-5 ovarian) | GI50 (SF-268 CNS) | GI50 (SF-539 CNS) | GI50 (SNB-75 CNS) | GI50 (U251 CNS) | GI50 (UACC-62 melanoma) | GI50 (OVCAR-8 ovarian) |
| --- | --- | --- | --- | --- | --- | --- | --- | --- | --- | --- | --- | --- | --- | --- | --- | --- | --- | --- | --- | --- |
| ClC1CCC2OOC1O2 (stereo not drawn) | > 100 µM | > 100 µM | > 100 µM | > 100 µM | > 100 µM | > 100 µM | > 100 µM | > 100 µM | > 100 µM | > 100 µM | – | – | – | – | – | – | – | – | – | – |
| COC(=O)C(=O)C(C(=O)C(=O)Nc1ccc(Cl)cc1C)c1nc2ccc(C(=O)c3ccccc3)cc2[nH]c1=O (stereo not drawn) | > 100 µM | > 100 µM | > 100 µM | > 100 µM | > 100 µM | > 100 µM | > 100 µM | > 100 µM | > 100 µM | > 100 µM | – | – | – | – | – | – | – | – | – | – |
| ClCc1ccc(-c2ccc(Cn3cnc4c(Cl)nc(Cl)nc43)cc2)cc1 | 8.53 µM | 2.28 µM | 13.3 µM | 32.4 µM | – | 4.77 µM | 4.99 µM | 7.81 µM | 3.64 µM | 6.35 µM | 2.72 µM | 0.885 µM | 3.39 µM | 17.8 µM | 2.01 µM | 2.14 µM | 2.63 µM | 1.89 µM | 2.49 µM | – |
| O=C(Nc1ccccc1)Nc1cccc(-n2cc(-c3ccncc3)c(-c3ccc(O)c(Cl)c3)n2)c1 | 21 µM | 41.4 µM | 25.7 µM | 31.5 µM | 21 µM | 68.8 µM | 4.5 µM | 10.7 µM | 6.06 µM | 15.5 µM | 4.95 µM | 6.06 µM | 3.45 µM | 5.39 µM | 5.73 µM | 1.96 µM | 1.68 µM | 2.17 µM | 3.73 µM | 3.27 µM |
| C/C(CC(=O)NNc1ccc([N+](=O)[O-])cc1)=N\Nc1ccc([N+](=O)[O-])cc1 | > 100 µM | > 100 µM | > 100 µM | > 100 µM | 38.1 µM | > 100 µM | > 100 µM | 93.5 µM | 33.2 µM | 19 µM | 3.8 µM | 14.1 µM | 5.92 µM | 99.4 µM | 13.4 µM | 5.97 µM | 22.1 µM | 10.5 µM | 1.55 µM | 14.2 µM |
| C=C1C(=O)O[C@H]2[C@H]1CC/C(Cn1cc(Cn3ccc4ccccc43)nn1)=C\CC[C@@]1(C)O[C@@H]21 | 3.41 µM | 3.61 µM | 3.46 µM | 3.21 µM | 8.22 µM | 3.63 µM | 3.35 µM | 15.6 µM | 12.1 µM | 2.89 µM | 1.71 µM | 1.86 µM | 1.67 µM | 1.59 µM | 1.82 µM | 1.86 µM | 2.61 µM | 3.42 µM | 1.44 µM | 2.73 µM |
| COC(=O)C(C(=O)C(=O)Nc1ccccc1C(C)=O)c1nc2ccc(Cl)cc2[nH]c1=O (stereo not drawn) | > 100 µM | > 100 µM | > 100 µM | > 100 µM | > 100 µM | > 100 µM | > 100 µM | > 100 µM | > 100 µM | > 100 µM | – | – | – | – | – | – | – | – | – | – |
| O=C(O)c1ccc(O)c(N=Nc2cc(S(=O)(=O)O)c3ccccc3c2O)c1 | > 100 µM | > 100 µM | > 100 µM | > 100 µM | > 100 µM | > 10 µM | > 10 µM | > 100 µM | > 100 µM | – | – | – | – | – | – | – | – | – | – | – |
| COC(=O)C(C(=O)C(=O)NC1=C(Cl)C(=O)c2ccccc2C1=O)c1csc(-n2nc(-c3ccccc3)cc2-c2ccccc2)n1 (stereo not drawn) | > 100 µM | > 100 µM | > 100 µM | > 100 µM | > 100 µM | > 100 µM | – | 9.4 µM | > 100 µM | > 100 µM | – | – | – | – | – | – | – | – | – | – |
| Cc1ccc([N+](=O)[O-])cc1NC(=O)C(=O)Cc1occc(=O)c1O | > 100 µM | > 100 µM | – | > 100 µM | > 100 µM | > 100 µM | > 100 µM | > 100 µM | > 100 µM | > 100 µM | – | – | – | – | – | – | – | – | – | – |
| C[C@@H](CO)OCOCc1ccccc1 | > 100 µM | > 100 µM | > 100 µM | – | – | > 100 µM | > 100 µM | > 100 µM | > 100 µM | > 100 µM | – | – | – | – | – | – | – | – | – | – |
| COC(=O)/C(C#N)=C1\CCC(O)N1C (stereo not drawn) | – | > 100 µM | > 100 µM | > 100 µM | > 100 µM | > 100 µM | > 100 µM | > 100 µM | > 100 µM | > 100 µM | – | – | – | – | – | – | – | – | – | – |
| COC(=O)C1=CN=C(C(=O)OC)NN1 | > 100 µM | > 100 µM | > 100 µM | – | > 100 µM | > 100 µM | > 100 µM | > 100 µM | > 100 µM | > 100 µM | – | – | – | – | – | – | – | – | – | – |
| CC(C)NCC(O)COC(=O)c1cccs1 (stereo not drawn) | > 100 µM | > 100 µM | > 100 µM | > 100 µM | > 100 µM | > 100 µM | – | > 100 µM | – | > 100 µM | – | – | – | – | – | – | – | – | – | – |
| C#CCOCn1cnc2c(=S)nc[nH]c21 | > 100 µM | > 100 µM | > 100 µM | > 100 µM | > 100 µM | > 100 µM | – | 98.9 µM | > 100 µM | > 100 µM | – | – | – | – | – | – | – | – | – | – |
| CCC1=C(C)/C(=C/c2[nH]c(CBr)c(CC)c2C)N=C1CBr | 30.2 µM | 38.1 µM | > 100 µM | – | 26.6 µM | 36.8 µM | 38.2 µM | 55.9 µM | 24.6 µM | 24.6 µM | – | – | – | – | – | – | – | – | – | – |
| Cc1ccc(S(=O)(=O)/N=c2\ssc(Nc3ccccc3)c2Cl)cc1 | – | > 50 µM | > 50 µM | > 50 µM | > 50 µM | 21.8 µM | – | – | 21.3 µM | > 50 µM | – | 30.9 µM | 33.6 µM | 21.1 µM | 6.83 µM | – | – | 8.92 µM | 13.5 µM | 16.5 µM |
| CCCCCCCC/C=C/CCCCCCCC1=NC(C)(C)CN1C(C)C | 2.09 µM | 2.14 µM | 2.98 µM | 2.88 µM | – | 3.07 µM | 2.87 µM | 2.9 µM | 3 µM | 3.02 µM | 0.516 µM | 0.868 µM | 1.63 µM | 1.54 µM | 1.7 µM | 1.53 µM | 1.56 µM | 1.62 µM | 1.61 µM | – |
| Oc1ccc(CNCc2ccccc2)c2cccnc12 | > 72 µM | > 100 µM | > 100 µM | 99.2 µM | > 100 µM | > 65.6 µM | – | 0.229 µM | 2.77 µM | > 34.8 µM | – | – | – | – | – | – | – | – | – | – |
